Results: patent US8088897B2, “Assay method for group transfer reactions” (BellBrook Labs, Inc., priority 2003, dated 2012)
Like-named read-outs stand apart in the source and are kept apart here.

Key:
[1] = system: Protein G-purified Anti-ADP antibody; assay: FP competition with 5-FAM-N6-ADP tracer and anti-ADP polyclonal antibody; assay type: binding, rabbit; conditions: 1 nM 5-FAM-N6-ADP tracer; for IC50: 19 hours room temperature, read-out: half maximal point in the competition curve (IC50); for amount required to displace the tracer: compared with ADP and ATP
Excerpt: To develop an anti-ADP antibody, 6-aminobutyl-ADP (Biolog Life Science Inst., Bremen, Germany) was conjugated to keyhole limpet hemocyanin with a suitable reagent such as glutaraldehyde and used to immunize rabbits. Other carrier proteins such as BSA or ovalbumin and other conjugation chemistries may be used. Attachment to carrier protein via the adenine ring exposes the ribosyl-phosphate moiety, where selectivity is required, and minimizes exposure of the adenine ring. The resulting antisera was tested for ADP binding affinity and selectivity in competitive fluorescence polarization binding assays. Synthesis of the fluor-ADP conjugates used as tracers in these binding assays is described below. […] The reaction mixtures consisted of 50 mM KPO4, 150 mM NaCl, 0.1 mg/mL BGG, 1 nM tracer, 3% Protein G-purified Anti-ADP antibody, and competitor. The reaction mixtures were incubated for 19 hours at room temperature. Competitors included ADP (∘), ATP (●), Adenosine (▪), and AMP (▴).

SULT1E1 [2] = target: T1, SULT1E1 (Homo sapiens, UniProt P49888); assay: Inhibition of SULT1E1 measured with the FPIA-based assay; assay type: biochemical
T1 construct: made in house; host or cells: E. coli
T1 sequence (P49888 1-294): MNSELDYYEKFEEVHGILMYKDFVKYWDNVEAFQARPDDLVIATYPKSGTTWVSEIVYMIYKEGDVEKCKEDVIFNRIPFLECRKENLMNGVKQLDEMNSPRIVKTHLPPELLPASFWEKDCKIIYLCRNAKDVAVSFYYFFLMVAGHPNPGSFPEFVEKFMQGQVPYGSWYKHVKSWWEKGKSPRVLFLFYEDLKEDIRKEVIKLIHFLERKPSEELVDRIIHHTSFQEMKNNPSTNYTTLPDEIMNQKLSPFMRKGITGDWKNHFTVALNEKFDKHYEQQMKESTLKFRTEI
Protocol: Specifically, FIG. 25 is a graph showing inhibition of SULT1E1 by 2,6 Dichloro-4-nitrophenol (DCNP) measured with the FPIA-based assay. DCNP was serially diluted two-fold into wells in 46 uL of phosphate assay buffer (30 mM KPO4 (pH 6.5), 0.5 mg/mL BGG, 15 mM DTT, 1.6 mM MgCl2, 4 μM PAPS), followed by 50 μl of a 2× Antibody/tracer mix (5 uL 3642 Ab/2 nM Tracer C8-PAP-F14), and 200 ng of SULTIE in a total volume of 100 μl. The plate was incubated at room temp for 30 min, and read on the Tecan Ultra. AmP values were calculated by subtracting the SULT1E reactions from the no SULTIE controls. All values represent the mean of replicates.

SULT1E1 [3] = target: T1, SULT1E1; assay: 35S-PAPS radioassay of SULT1E1 inhibition; assay type: biochemical; conditions: 35S-radioassay
SULT1E1 [4] = target: T1, SULT1E1; assay: SULT1E1 enzymatic properties (Km, acceptor substrate specificity); assay type: biochemical; conditions: for acceptor substrate specificity: purified SULT1E1
Excerpt: In order to establish a sulfotransferase HTS assay method, SULT1E1, a SULT isoform, was first subcloned into an E. coli expression vector with a C-terminal 6× histidine tag and the expressed protein was purified by affinity chromatography and characterized with respect to its physical and enzymatic properties.

UGT 2B7 Baculosomes = assay: Mock UGT reactions: signal stabilization and reaction quenching; assay type: biochemical; conditions: EGTA at 80 mM, sodium vanadate at 30 mM; for effect on UDP breakdown: 5 μM UDP added, no acceptor substrate
Protocol: UGT enzymes are available only as crude membrane preparations that contain many other enzymes besides the desired UGT. Some of these contaminating enzymes can catalyze hydrolysis of the UDP molecule to UMP or Uridine, resulting in an unstable signal for the assay. To prevent this, agents such as sodium vanadate and EGTA are added to stabilize the assay signal by preventing breakdown of the UDP formed during the UGT reaction. […] The use of such a quenching reagent provides greater flexibility in experimental protocols because HTS assay plates may be read at any time after the quench reagent is added.

GDP monoclonal antibody = assay: FP competition binding of GDP vs GTP to monoclonal antibody-tracer complex; design: species or system mouse; conditions: 2 nM far red Tracer, 0.85 μg/mL antibody, one hour
Protocol: Fluorescence intensity and polarization measurements utilizing the ADP-Alexa Fluor® or GDP-Alexa Fluor® tracers were performed on a Tecan Ultra or Safire^2™ plate reader (Durham, N.C.) using appropriate filter sets. For the ADP-Alexa Fluor®633 tracer, the filters for the Safire2 were 635 nm excitiation (LED) and 670 emission (20 nm bandwidth). The free tracer reference was set to 20 mP, and the buffer (with or without antibody) was used as the buffer blank for both the sample and free tracer reference wells. Data from binding and competition curves were fit to a variable slope sigmoidal dose-response curve and the IC50 were calculated using GraphPad Prism (GraphPad Software, San Diego, Calif.).
To identify suitable antibody/tracer pairs for FP assay development, equilibrium binding assays were performed by titrating ADP/GDP antibodies with a panel of ADP/GDP tracers (1-2 nM). The first well consisted of 1 mg/mL antibody in 30 μL of the final equilibrium buffer (i.e. 50 mM HEPES (pH 7.5), 0.01% Brij-35, 1 mM EGTA, 2 mM MgCl2, 0.5% DMSO, 20 mM EDTA, and 2 nM tracer). A two-fold serial dilution of the antibody was then performed in 15 μL of the same buffer. […]
In one example, the monoclonal antibody binding selectivity between GDP vs. GTP was analyzed and the results are set forth in FIG. 27. […]

Ab 3642 = assay: FP competition curves with Ab 3642 and PAP tracer; assay type: binding, rabbit; conditions: read-out: IC50 for displacement of tracer
Protocol: N6-PAP-6F8 tracer is represented by the open symbols: ◯ (PAP), □ (PAPS). C8-PAP-F14 tracer is represented with the closed symbols: ● (PAP), ▪ (PAPS). PAP or PAPS was serially diluted two-fold in black mutiwell plates containing 50 mM phosphate buffer (pH 7.4), 150 mM NaCl, 0.1 mg/mL BGG, 1 nM C8-PAP-F14, and 1.5 uL purified Ab 3642 in a total volume of 12 μl or 1 nM N6-PAP-F8 and 0.5 uL 3642 Ab in a 20 uL volume. Polarization values were read after one hour at room temperature.
(§1) Competitors were serially diluted two-fold in a black 384-well microtiter plate containing 50 mM phosphate buffer (pH 7.4), 150 mM NaCl, 0.1 mg/mL BGG, 1 nM Tracer C8-PAP-F14, and either 1.5 uL Ab 3642 (A) or 3 uL Ab 1781 (B) in a total volume of 12 uL. After one hour incubation at room temperature, the polarization values were read on a Tecan Ultra (Ex485/Em535). The mean and standard deviation of duplicates for all data sets are shown.

Ab 1781 = assay: FP competition curves with Ab 1781 and PAP tracer; assay type: binding, rabbit; conditions: 1 nM C8-PAP-F14 tracer, 3 uL Ab 1781; read-out: IC50 for displacement of tracer
Protocol: as §1

[5] = target: polyclonal antibody raised against a mixture of UTP and UDP conjugated to KLH (UGT-1); assay: Competitive FP displacement of UTP tracers from anti-UDP/UTP antibody by uridine nucleotides; assay type: binding, rabbit
Protocol: To detect UGT catalytic activity a series of experiments were performed using the antibodies and tracers described above. […] The antibody and 2 nM of a commercially available Alexa® 488-5-aminoalkynyl-UTP molecule (Molecular Probes) were added to wells of a black multiwell plate (Thermo Labsystems Pt# 7605) containing the indicated amounts of uridine nucleotides in 50 mM KPO4pH 7.5, 150 mM NaCl, 0.1 mg/ml BGG . Fluorescence polarization was read in a Tecan Ultra plate reader after several hours of equilibration at room temperature using a Ex485/Em535 filter set.
Applicants further note that the ability of the antibody to selectively recognize low micromolar concentrations of UDP in the presence of UDPGA concentrations typically used for UGT assays —50-100μM —is important for achieving a low signal to background. Varying the structure of the immunogen, as mentioned above, is one way to change the relative binding properties of antibodies for UDP and UDPGA. Another way that is not as immediately obvious is to vary the tracer structure. The method depends on the relative ability of UDP and UDPGA to competitively displace the tracer from antibody, and it is reasonable to assume that not all tracers will show the same relative response to the two nucleotides. An example of such tracer effects is summarized in FIGS. 10 A and B. In this example, two different tracers are compared. The tracers are conjugates of 5-aminoallyl UTP to two different amine reactive Alexa Fluors®, one with an excitation peak of 546 and the other with an excitation of 568. Both of these tracers are displaced from antibody (anti-UDP rabbit polyclonal Ab or UGT-1) in a similar manner by UDP. […] Thus, the signal to background of the UGT assay with a given antibody can be enhanced by identifying tracers that are displaced by UDP more effectively than UDPGA.

SULT1E1 [6] = target: T1, SULT1E1; conditions: acceptor substrate; read-out: Km, published values for purified recombinant SULT1E1; cited from earlier work
[7] = 1 nM C8-PAP-F14 tracer, 1.5 uL Ab 3642
[8] = Alexa 546 5-aminoallyl UTP tracer, UGT-1, read-out: IC50 for displacement of tracer from antibody
[9] = 2 nM Alexa 488-5-aminoalkynyl-UTP tracer, UGT-1 antibody, read-out: half maximal values (IC50) for competing off the tracer

## Nc1ncnc2c1ncn2[C@@H]1O[C@H](COP(=O)(O)OP(=O)(O)O)[C@@H](O)[C@H]1O [ADP, adenosine diphosphate]
[1]
  IC50: 0.3 µM

## Nc1ncnc2c1ncn2[C@@H]1O[C@H](COP(=O)(O)O)[C@@H](O)[C@H]1O [AMP]
[1]
  amount required to displace the tracer: much higher amounts

## Nc1ncnc2c1ncn2[C@@H]1O[C@H](COP(=O)(O)OP(=O)(O)OP(=O)(O)O)[C@@H](O)[C@H]1O [ATP, adenosine triphosphate]
[1]
  IC50: 15 µM

## O=[N+]([O-])c1cc(Cl)c(O)c(Cl)c1 [DCNP, 2,6 Dichloro-4-nitrophenol]
SULT1E1 [2]
  Ki: 7800 µM
SULT1E1 [3]
  Ki: 11000 µM

## C[C@]12CC[C@H](O)CC1=CC[C@@H]1[C@@H]2CC[C@]2(C)C(=O)CC[C@@H]12 [DHEA]
SULT1E1 [4]
  acceptor substrate specificity: very poor substrates

## O=C(O)CN(CCOCCOCCN(CC(=O)O)CC(=O)O)CC(=O)O [EGTA]
UGT 2B7 Baculosomes
  effect on UGT activity: minimal effects
  effect on UDP breakdown: very effectively inhibits UDP breakdown

## Nc1nc2c(ncn2[C@@H]2O[C@H](COP(=O)(O)OP(=O)(O)O)[C@@H](O)[C@H]2O)c(=O)[nH]1 [GDP, guanosine diphosphate]
GDP monoclonal antibody
  IC50: 0.01 µM

## Nc1nc2c(ncn2[C@@H]2O[C@H](COP(=O)(O)OP(=O)(O)OP(=O)(O)O)[C@@H](O)[C@H]2O)c(=O)[nH]1 [GTP, guanosine triphosphate]
GDP monoclonal antibody
  IC50: 1.3 µM

## Nc1ncnc2c1ncn2[C@@H]1O[C@H](COP(=O)(O)O)[C@@H](OP(=O)(O)O)[C@H]1O [PAP, 3′-phosphoadenosine 5′-phosphate]
Ab 3642; [7]
  IC50: 0.3 µM
Ab 3642; C8-PAP-F14 tracer, Ab 3642
  IC50: 0.3 µM
Ab 1781
  IC50: 0.3 µM

## Nc1ncnc2c1ncn2[C@@H]1O[C@H](COP(=O)(O)OS(=O)(=O)O)[C@@H](OP(=O)(O)O)[C@H]1O [PAPS, 3′-Phosphoadenosine 5′-phosphosulphate]
Ab 3642; [7]
  IC50: 3.8 µM
Ab 1781
  IC50: 1.5 µM
SULT1E1 [4]; donor, read-out: Km for PAPS with SULT1E1
  Km: ~0.05 µM

## O=C(O)[C@H]1O[C@H](OP(=O)(O)OP(=O)(O)OC[C@H]2O[C@@H](n3ccc(=O)[nH]c3=O)[C@H](O)[C@@H]2O)[C@H](O)[C@@H](O)[C@@H]1O [UDPGA, UDP-glucuronic acid]
[5]; 2 nM Alexa 488-5-aminoalkynyl-UTP tracer, UGT-1 antibody, read-out: IC50 for competing off the tracer
  IC50: ~2000 µM
[5]; [8]
  IC50: 1200 µM

## O=c1ccn([C@@H]2O[C@H](COP(=O)(O)OP(=O)(O)O)[C@@H](O)[C@H]2O)c(=O)[nH]1 [UDP]
[5]; [9]
  IC50: 15 µM
[5]; [8]
  IC50: 7 µM
[5]; Alexa 568 5-aminoallyl UTP tracer, UGT-1, read-out: IC50 for displacement of tracer from antibody
  IC50: 9 µM

## O=c1ccn([C@@H]2O[C@H](COP(=O)(O)OP(=O)(O)OP(=O)(O)O)[C@@H](O)[C@H]2O)c(=O)[nH]1 [UTP]
[5]; [9]
  IC50: 5 µM

## Nc1ncnc2c1ncn2[C@@H]1O[C@H](CO)[C@@H](O)[C@H]1O [adenosine, Adenosine]
[1]
  amount required to displace the tracer: much higher amounts

## NCCc1ccc(O)c(O)c1 [dopamine]
SULT1E1 [4]
  acceptor substrate specificity: very poor substrates

## C[C@]12CC[C@@H]3c4ccc(O)cc4CC[C@H]3[C@@H]1CC[C@@H]2O [estradiol]
SULT1E1 [6]
  Km: 0.005 to 0.015 µM

## Oc1cccc2ccccc12 [α-naphthol]
SULT1E1 [4]
  acceptor substrate specificity: intermediate

## Sodium vanadate
UGT 2B7 Baculosomes
  effect on UGT activity: very effectively inhibits UGT activity
  effect on UDP breakdown: prevents UDP breakdown
